How the values were obtained:
[1] = system: reactive T cells; assay: Treg suppression assay: proliferation of reactive T cells (eFluor670 dilution, flow cytometry); format: cell-based, mouse; settings: Teff:Treg 2:1, three days; concentration not specified
Method: To identify the efficacy of the inventive compounds on suppressing the proliferation of reactive T cells in immune responses, compounds 255, 280, 374, 416 and 476 according to the present invention were cultured together with reactive T cells and regulatory T cells […], and then the suppressive efficacy of regulatory T cells was measured.
Specifically, a six-week old C57BL6 male mice were supplied from Central Lab Animal Inc., then acclimated for one week, and then used in an experiment. A spleen was isolated from the mouse, and then treated with collagenase D (Roche, 11088866001), such that splenocytes were isolated therefrom. […] were isolated by means of a CD4+CD25+ regulatory T cell isolation kit (Miltenyi Biotec, 130-091-041) according to a protocol provided by a manufacturer. Teff cells were cultured at 37° C. for ten minutes by means of eFluor®670 (Cell proliferation Dye eFluor®670, eBioscience), such that cell membranes were stained. Teff and Treg were divided into a 96 well plate at a ratio of 2:1, and then T cells were activated for three days by means of an anti-CD3E and anti-CD28 mAb magnetic bead (T cell activation/expansion kit, Miltenyi Biotec, 130-093627), such that Treg suppression assay was performed. A test drug was simultaneously treated for three days, during which the assay was performed. The divided amount of eFluor®670 labeled on the Teff cell membranes was measured, such that a degree of proliferation of T cells was evaluated accordingly. An eFluor®670-dilution plot was measured by means of a flow cytometer (FACS LSR Fortessa, BD bioscience). The suppressive ability on T cells proliferation was calculated by means of a following equation.

[2] = system: CTLA4 (cytotoxic T-lymphocyte-associated protein 4) in the regulatory T cells; assay: CTLA4 expression in regulatory T cells (iTreg) by flow cytometry; format: cell-based, mouse; settings: for level of CTLA4 expression in the T cells (function of regulatory T cells): iTreg, six days treatment, concentration not specified
Method: To identify if the compounds according to the present invention regulate a function of regulatory T cells in immune responses, compounds 255, 280, 374, 416 and 476 were treated, and then an expression level of an immune checkpoint receptor CTLA4 (cytotoxic T-lymphocyte-associated protein 4) in the regulatory T cells was measured by means of flow cytometry.
Specifically, a six-week old C57BL6 male mice were supplied from Central Lab Animal Inc., then acclimated for one week, and then used in an experiment. A spleen was isolated from the mouse, and then treated with collagenase D (Roche, 11088866001), such that splenocytes were isolated therefrom. CD4+CD25-T cells were isolated by means of a CD4+CD25+ regulatory T cell isolation kit (Miltenyi Biotec, 130-091-041), and then CD4+CD25-T cells (at a ratio of 5×10^5 cells/well) were treated with an anti-CD3E/anti-CD28 mAb bead (T cell activation/expansion kit, Miltenyi Biotec, 130-093627) and a mouse recombinant TGF-β2 for six days, such that they were differentiated into iTreg. A test drug was simultaneously treated for six days, during which the cells were differentiated into iTreg. After that, the cells were incubated by means of anti-CD4/anti-CD25 mAb (eBioscience, 25-0042-82, 17-0251-82) at 4° C. for 20 minutes, and then labeling was performed. For intracytoplasmic staining, permeabilization was performed by means of Fix/permeabilization buffer (eBioscience, 00-5523-00), then labeling was performed by means of anti-FOXP3-Alexafluor488 (eBioscience, 53-5773-82) and anti-CTLA4-PE (eBioscience, 12-1522-82), and then flow cytometry was performed by means of FACS LSR Fortessa (BD bioscience).

[3] = system: TNFα secretion in LPS-stimulated human monocyte cell lines (THP-1); assay: Suppression of TNFα secretion in LPS-stimulated THP-1 cells (ELISA); format: cell-based
Method: To identify the efficacy of the inventive compounds on suppressing a TNFα secretion in immune responses, suppression of TNFα production, which was achieved by a treatment with compounds 374, 461, 500, 530 and 532 according to the present invention in LPS-stimulated human monocyte cell lines (THP-1), was quantified by means of an enzyme immuno-assay (ELISA).
Specifically, the THP-1 cell lines (ATCC) were cultured in an RPMI-1640 medium comprising 10% FBS. The cell lines were divided into a 24 well plate at a ratio of 1×10^5 cells per well, then treated with 100 ng/mL PMA (phorbol 12-myristate 13-acetate) for 24 hours, and then differentiated into macrophage. Then, the culture medium was replaced with a new one, then treated with a test drug for 24 hours, and then treated again with 10 ng/mL LPS (E.Coli, O55:B5) for four hours for stimulation. After that, supernatant was taken and used to measure the amount of TNFα secreted from the cells by means of a Human TNFα Instant ELISA kit (eBioscience, BMS223INST) according to a protocol provided by a manufacturer.

[4] = system: experimental autoimmune uveitis (EAU) mouse; assay: Clinical grading of uveitis in the EAU mouse (fundoscopy); format: in vivo
[5] = system: experimental autoimmune uveitis (EAU) mouse; assay: H&E staining of histopathological lesions in the retina of the EAU mouse; format: in vivo; settings: 0.3% eye drop twice a day, Day 21
[6] = system: experimental autoimmune uveitis (EAU) mouse; assay: Immunofluorescent staining of immunomarkers in the retina of the EAU mouse; format: in vivo
[7] = system: experimental autoimmune uveitis (EAU) mouse; assay: ELISA of IFN-γ and IL-17A from spleen mononuclear cells of the EAU mouse; format: in vivo
[8] = system: experimental autoimmune uveitis (EAU) mouse; assay: Real-time PCR of HDAC6 and inflammatory cytokines in the retina of the EAU mouse; format: in vivo; settings: for expression level of HDAC6 / expression level of IL-1β / expression level of IL-17 / expression level of INF-γ / expression level of TNF-α: retina
[9] = system: experimental autoimmune uveitis (EAU) mouse; assay: FACS of immune cells in retina and draining lymph node of the EAU mouse; format: in vivo
[10] = THP-1, LPS, at both 100 nM and 300 nM
[11] = in comparison with LPS-induced control group, THP-1, concentration not specified
[12] = EAU mouse, eye drop administration group
[13] = spleen MNC stimulated with IRBP peptide 72 hours, eye drop administration group
[14] = i.p. administration group (10 or 30 mg/kg once a day)
[15] = lymph node tissues, eye drop administration group
[16] = lymph nodes, i.p. administration group
[17] = retina tissues, eye drop administration group
[18] = THP-1, LPS, on increasing concentration of compound treatment from 100 nM to 300 nM

O=C(NO)c1ccc(CN(C(=O)N2CCOCC2)c2cccc(Br)c2)cc1 [Compound 255, N-(3-bromophenyl)-N-(4-(hydroxycarbamoyl)benzyl)morpholine-4-carboxamide]
proliferation of the reactive T cells [1]: excellent effect | level of CTLA4 expression in the T cells (function of regulatory T cells) [2]: excellent effect | cytotoxicity ([2]; treated at 1000 nM, data analysis not performed): severe cytotoxicity

O=C(NO)c1ccc(CN(C(=O)N2CCOCC2)c2ccccn2)cc1 [Compound 280, N-(4-(hydroxycarbamoyl)benzyl)-N-(pyridine-2-yl)morpholine-4-carboxamide]
proliferation of the reactive T cells [1]: excellent effect | level of CTLA4 expression in the T cells (function of regulatory T cells) [2]: excellent effect

O=C(NO)c1ccc(CN(C(=O)N2CCOCC2)c2cccc(C(F)(F)F)c2)cc1 [Compound 374, N-(4-(hydroxycarbamoyl)benzyl)-N-(3-(trifluoromethyl)phenyl)morpholine-4-carboxamide]
level of TNFα secretion [3, 10]: remarkably decreased down to a level at which no inflammatory response was induced by means of the LPS | level of TNFα secretion [3, 11]: excellent effect | proliferation of the reactive T cells [1]: excellent effect | level of CTLA4 expression in the T cells (function of regulatory T cells) [2]: excellent effect | clinical grade of uveitis ([4]; EAU mouse, 0.3% eye drop twice a day from Day 11, Day 21, scale Grade 0-4): ≤ 0.5 Grade | decreasing a uveitis lesion ([4]; animal model for an induced uveitis disease, summary (FIGS. 4 to 6)): excellent effect | inflammatory lesions in retina tissues (H&E) [5]: significantly decreased | B220 (B cell marker) in retina [6, 12]: did not show an obvious change | CD3(+) cell (T cell marker) in retina [6, 12]: significantly decreased to a similar level to that of a normal mouse | infiltration of CD4(+) immune cells into a retina tissue [6, 12]: clearly decreased and remained only under the retina | inhibiting an infiltration of inflammatory cells ([6]; animal model for an induced uveitis disease, summary (FIGS. 7 to 10)): excellent effect | inhibiting an expression of inflammatory cytokines in a spleen ([7]; animal model for an induced uveitis disease, summary (FIG. 11)): excellent effect | level of IL-17A [7, 13]: significantly decreased | level of INF-γ [7, 13]: significantly decreased | inhibiting an expression of inflammatory cytokines in inflammation regions ([8]; animal model for an induced uveitis disease, summary (FIG. 12)): excellent effect | expression level of HDAC6 ([8]; eye drop administration group): significantly decreased and recovered to the level of the normal mouse | expression level of IL-1β ([8]; eye drop administration group): significantly decreased and recovered to the level of the normal mouse | expression level of IL-17 ([8]; eye drop administration group): significantly decreased and recovered to the level of the normal mouse | expression level of INF-γ ([8]; eye drop administration group): significantly decreased and recovered to the level of the normal mouse | expression level of TNF-α ([8]; eye drop administration group): significantly decreased and recovered to the level of the normal mouse | expression level of HDAC6 [8, 14]: significantly decreased and recovered to the level of the normal mouse | expression level of IL-1β [8, 14]: significantly decreased and recovered to the level of the normal mouse | expression level of IL-17 [8, 14]: significantly decreased and recovered to the level of the normal mouse | expression level of INF-γ [8, 14]: significantly decreased and recovered to the level of the normal mouse | expression level of TNF-α [8, 14]: significantly decreased and recovered to the level of the normal mouse | decreasing the number of immune cells in a retina and a lymph node ([9]; animal model for an induced uveitis disease, summary (FIGS. 13 to 21)): excellent effect | number of IL-IP(+) cells [9, 15]: significantly decreased | number of INF-γ(+)/CD4(+) cells [9, 15]: significantly decreased | number of INF-γ(+)/CD4(+) cells ([9]; lymph node tissues, i.p. administration group): significantly decreased | number of CD11b(+) cells [9, 16]: decreased | number of CD19(+) cells [9, 16]: decreased | number of F4/80(+) cells [9, 16]: decreased | number of IL-IP(+) cells [9, 17]: significantly decreased | number of INF-γ(+)/CD4(+) cells [9, 17]: significantly decreased | number of INF-γ(+)/CD4(+) cells ([9]; retina tissues, i.p. administration group, 10 mg/kg): significantly decreased | number of INF-γ(+)/CD4(+) cells ([9]; retina tissues, i.p. administration group, 30 mg/kg): significantly decreased

CN1CCN(C(=O)N(Cc2ccc(C(=O)NO)cc2)c2ccc(F)cc2F)CC1 [Compound 416, N-(2,4-difluorophenyl)-N-(4-(hydroxycarbamoyl)benzyl)-4-methylpiperazine-1-carboxamide]
proliferation of the reactive T cells [1]: excellent effect | level of CTLA4 expression in the T cells (function of regulatory T cells) [2]: excellent effect

CCN1CCN(C(=O)N(Cc2ccc(C(=O)NO)cc2)c2cccc(C(F)(F)F)c2)CC1 [Compound 461, 4-ethyl-N-(4-(hydroxycarbamoyl)benzyl)-N-(3-(trifluoromethyl)phenyl)piperazine-1-carboxamide]
level of TNFα secretion [3, 10]: remarkably decreased down to a level at which no inflammatory response was induced by means of the LPS | level of TNFα secretion [3, 11]: excellent effect

O=C(NO)c1ccc(CN(C(=O)N2CC(F)(F)C2)c2cccc(C(F)(F)F)c2)cc1 [Compound 476, 3,3-difluoro-N-(4-(hydroxycarbamoyl)benzyl)-N-(3-(trifluoromethyl)phenyl)azetidine-1-carboxamide]
proliferation of the reactive T cells [1]: excellent effect | level of CTLA4 expression in the T cells (function of regulatory T cells) [2]: excellent effect

O=C(NO)c1ccc(CN(C(=O)N2CCOCC2)c2cccc(CF)c2)cc1 [Compound 500, N-(3-(fluoromethyl)phenyl)-N-(4-(hydroxycarbamoyl)benzyl)morpholine-4-carboxamide]
level of TNFα secretion [3, 10]: remarkably decreased down to a level at which no inflammatory response was induced by means of the LPS | level of TNFα secretion [3, 11]: excellent effect

O=C(NO)c1ccc(CN(C(=O)N2CCOCC2)c2cccc(F)c2)cc1 [Compound 530, N-(3-fluorophenyl)-N-(4-(hydroxycarbamoyl)benzyl)morpholine-4-carboxamide]
level of TNFα secretion [3, 18]: drastically decreased | level of TNFα secretion [3, 11]: excellent effect

O=C(NO)c1ccc(CN(C(=O)N2CCOCC2)c2cccc(C(F)(F)F)c2)c(F)c1 [Compound 532, N-(2-fluoro-4-(hydroxycarbamoyl)benzyl)-N-(3-(trifluoromethyl)phenyl)morpholine-4-carboxamide]
level of TNFα secretion [3, 18]: drastically decreased | level of TNFα secretion [3, 11]: excellent effect

Source: patent US20210077501A1, “COMPOSITIONS FOR PREVENTING OR TREATING UVEITIS” (Chong Kun Dang Pharmaceutical Corp., priority 2018, published 2021)
